The test system of test [1] is spindle assembly checkpoint. Description: SAC-Formation - Nocodazole-Induced Assay. The class given is cell-based. The settings on record: Homo sapiens; HeLa cells, nocodazole 0.1 μg/ml, 24 h, phosphorylated histone H3 on serine 10. An outline of the steps: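 HeLa cells were given nocodazole at 0.1 μg/ml final together with compounds (0.005–20 μM, 0.5% DMSO) for 24 h at 37° C. Mitotic cells were counted by phospho-histone H3 Ser10 immunostaining, with cell number from HOECHST 33342, by high-content imaging. The loss of mitotic cells was fitted with a four-parameter Hill equation.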

Test [2] addresses human kinase Mps-1 (Homo sapiens (Human), UniProt P33981). In words: Mps-1 kinase assay (TR-FRET). The class given is biochemical. The settings on record: 10 μM ATP; read-out: Mps1 avg (IC50 [mol/l]). The procedure:
The human kinase Mps-1 phosphorylates a biotinylated substrate peptide. Detection of the phosphorylated product is achieved by time-resolved fluorescence resonance energy transfer (TR-FRET) from Europium-labelled anti-phospho-Serine/Threonine antibody as donor to streptavidin labelled with cross-linked allophycocyanin (SA-XLent) as acceptor. Compounds are tested for their inhibition of the kinase activity.
N-terminally GST-tagged human full length recombinant Mps-1 kinase (purchased from Invitrogen, Karslruhe, Germany, cat. no PV4071) was used. As substrate for the kinase reaction a biotinylated peptide of the amino-acid sequence biotin-Ahx-PWDPDDADITEILG (C-terminus in amide form, purchased from Biosyntan GmbH, Berlin) was used.
For the assay 50 nl of a 100-fold concentrated solution of the test compound in DMSO was pipetted into a black low volume 384 well microtiter plate (Greiner Bio-One, Frickenhausen, Germany), 2 μl of a solution of Mps-1 in assay buffer [0.1 mM sodium-ortho-vanadate, 10 mM MgCl2, 2 mM DTT, 25 mM Hepes pH 7.7, 0.05% BSA (w/v), 0.001% Pluronic F-127] were added and the mixture was incubated for 15 min at 22° C. to allow pre-binding of the test compounds to Mps-1 before the start of the kinase reaction. Then the kinase reaction was started by the addition of 3 μl of a solution of 16.7 μM adenosine-tri-phosphate (ATP, 16.7 μM=>final conc. in the 5 μl assay volume is 10 μM) and peptide substrate (1.67 μM=>final conc. in the 5 μl assay volume is 1 μM) in assay buffer and the resulting mixture was incubated for a reaction time of 60 min at 22° C. The concentration of Mps-1 in the assay was adjusted to the activity of the enzyme lot and was chosen appropriate to have the assay in the linear range, typical enzyme concentrations were in the range of about 0.5 nM (final conc. in the 5 μl assay volume). The reaction was stopped by the addition of 5 μl of a solution of TR-FRET detection reagents (100 mM Hepes pH 7.4, 0.1% BSA, 40 mM EDTA, 140 nM Streptavidin-XLent [#61GSTXLB, Fa. Cis Biointernational, Marcoule, France], 1.5 nM anti-phospho(Ser/Thr)-Europium-antibody [#AD0180, PerkinElmer LAS, Rodgau-Jugesheim, Germany]. Instead of the 1.5 nM anti-phospho(Ser/Thr)-Europium-antibody a mixture of 2 nM unlabeled anti-phospho ser/thr-pro antibody MPM-2 [Millipore cat. #05-368] and 1 nM LANCE EU-W1024 labeled anti-mouse IgG antibody [Perkin-Elmer, product no. AD0077] can be used).
The resulting mixture was incubated 1 h at 22° C. to allow the binding of the phosphorylated peptide to the anti-phospho(Ser/Thr)-Europium-antibody. Subsequently the amount of phosphorylated substrate was evaluated by measurement of the resonance energy transfer from the Europium-labelled anti-phospho(Ser/Thr) antibody to the Streptavidin-XLent. Therefore, the fluorescence emissions at 620 nm and 665 nm after excitation at 350 nm was measured in a Viewlux TR-FRET reader (PerkinElmer LAS, Rodgau-Jugesheim, Germany). The “blank-corrected normalized ratio” (a Viewlux specific readout, similar to the traditional ratio of the emissions at 665 nm and at 622 nm, in which blank and Eu-donor crosstalk are subtracted from the 665 nm signal before the ratio is calculated) was taken as the measure for the amount of phosphorylated substrate. The data were normalised (enzyme reaction without inhibitor=0% inhibition, all other assay components but no enzyme=100% inhibition).
Background: In TR-FRET formats the signal depends on donor and acceptor labels being close together.

pIC50: −log10 of the molar value.

human kinase Mps-1, sequence (P33981 whole entry): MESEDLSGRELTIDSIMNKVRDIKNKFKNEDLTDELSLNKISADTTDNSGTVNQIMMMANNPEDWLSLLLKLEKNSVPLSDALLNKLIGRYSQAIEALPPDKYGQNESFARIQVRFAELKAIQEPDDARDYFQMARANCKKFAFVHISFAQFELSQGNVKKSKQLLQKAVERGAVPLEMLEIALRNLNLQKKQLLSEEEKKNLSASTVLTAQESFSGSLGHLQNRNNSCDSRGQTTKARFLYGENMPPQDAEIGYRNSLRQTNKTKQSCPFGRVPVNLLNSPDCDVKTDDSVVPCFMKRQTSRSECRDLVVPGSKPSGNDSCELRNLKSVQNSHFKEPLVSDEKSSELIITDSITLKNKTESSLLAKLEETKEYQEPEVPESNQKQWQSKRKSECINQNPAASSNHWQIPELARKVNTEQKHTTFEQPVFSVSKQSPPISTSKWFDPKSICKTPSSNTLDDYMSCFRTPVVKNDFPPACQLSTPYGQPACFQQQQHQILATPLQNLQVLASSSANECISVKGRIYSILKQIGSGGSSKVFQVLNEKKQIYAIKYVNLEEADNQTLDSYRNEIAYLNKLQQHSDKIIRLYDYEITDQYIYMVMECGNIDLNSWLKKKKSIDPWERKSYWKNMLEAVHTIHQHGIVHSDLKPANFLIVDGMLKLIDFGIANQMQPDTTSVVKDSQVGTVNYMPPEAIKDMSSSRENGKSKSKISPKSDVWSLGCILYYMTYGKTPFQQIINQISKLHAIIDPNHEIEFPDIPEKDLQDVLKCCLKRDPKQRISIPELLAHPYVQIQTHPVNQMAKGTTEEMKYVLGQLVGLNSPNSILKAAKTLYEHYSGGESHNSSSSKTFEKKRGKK

With `COc1ccc(NC(=O)c2c(C)nsc2Nc2cnc3cc(Cl)ccc3n2)cn1` [Example 23, 5-[(6-Chloroquinoxalin-2-yl)amino]-N-(6-methoxypyridin-3-yl)-3-methyl-1,2-thiazole-4-carboxamide], the figures for the pIC50 in test [1] and in test [2] were 6.55 and less than 4.70, respectively.
The like results for `CCOC(=O)c1sc(Nc2snc(C)c2C(=O)Nc2ccc(OC)nc2)nc1C` [Example 30, Ethyl 2-({4-[(6-methoxypyridin-3-yl)carbamoyl]-3-methyl-1,2-thiazol-5-yl}amino)-4-methyl-1,3-thiazole-5-carboxylate] were, in that order, 7.04 and less than 4.70.
For `COc1ccc(NC(=O)c2c(C)nsc2Nc2nccnc2C#N)cn1` [Example 24, 5-[(3-Cyanopyrazin-2-yl)amino]-N-(6-methoxypyridin-3-yl)-3-methyl-1,2-thiazole-4-carboxamide], the pIC50 is 5.42 in test [1] and less than 4.70 in test [2].
For `Cc1nsc(Nc2ncc(C(=O)N(C)C)s2)c1C(=O)Nc1ccc(F)c(F)c1` [Example 49, N-(3,4-Difluorophenyl)-5-{[5-(dimethylcarbamoyl)-1,3-thiazol-2-yl]amino}-3-methyl-1,2-thiazole-4-carboxamide], in that order: 6.46 and less than 4.70.
For `CCc1ccccc1NC(=O)c1c(C)nsc1Nc1cc(C(F)(F)F)ccn1` [Example 18, N-(2-Ethylphenyl)-3-methyl-5-{[4-(trifluoromethyl)pyridin-2-yl]amino}-1,2-thiazole-4-carboxamide], the pIC50 in test [1] is 6.82; in test [2] it was less than 4.70.
The like results for `Cc1nsc(Nc2nc3c(C(F)(F)F)ccnc3s2)c1C(=O)Nc1ccc(Cl)c(F)c1` [Example 103, N-(4-Chloro-3-fluorophenyl)-3-methyl-5-{[7-(trifluoromethyl)[1,3]thiazolo[5,4-b]pyridin-2-yl]amino}-1,2-thiazole-4-carboxamide] were, in that order, 6.62 and less than 4.70.
For `Cc1nsc(Nc2ccc(C#N)cn2)c1C(=O)Nc1ccc(F)c(F)c1` [Example 28, 5-[(5-Cyanopyridin-2-yl)amino]-N-(3,4-difluorophenyl)-3-methyl-1,2-thiazole-4-carboxamide], in that order: 7.39 and less than 4.70.
With `Cc1nsc(Nc2cncc(C(=O)N3CCCC3)n2)c1C(=O)Nc1ccc(F)c(F)c1` [Example 106, N-(3,4-Difluorophenyl)-3-methyl-5-{[6-(pyrrolidin-1-ylcarbonyl)pyrazin-2-yl]amino}-1,2-thiazole-4-carboxamide], the pIC50 in test [1] is 6.59; in test [2], less than 4.70.
For `Cc1nsc(Nc2cnc3ccccc3n2)c1C(=O)Nc1ccc(Oc2ccccc2)nc1` [Example 112, 3-Methyl-N-(6-phenoxypyridin-3-yl)-5-(quinoxalin-2-ylamino)-1,2-thiazole-4-carboxamide], in that order: 7.74 and less than 4.70.
As to `COc1ccc(Oc2ccc(NC(=O)c3c(C)nsc3Nc3cnc4ccccc4n3)cn2)cc1` [Example 116, N-[6-(4-Methoxyphenoxy)pyridin-3-yl]-3-methyl-5-(quinoxaline-2-ylamino)-1,2-thiazole-4-carboxamide], the pIC50 in test [1] was 5.80; in test [2] it was 5.44.
The like results for `Cc1nsc(Nc2cnccn2)c1C(=O)Nc1ccc(Cl)c(F)c1` [Example 56, N-(4-Chloro-3-fluorophenyl)-3-methyl-5-(pyrazin-2-ylamino)-1,2-thiazole-4-carboxamide] were, in that order, 7.17 and less than 4.70.
The like results for `CCc1ccccc1NC(=O)c1c(C)nsc1Nc1ncnc2sccc12` [Example 12, N-(2-Ethylphenyl)-3-methyl-5-(thieno[2,3-d]pyrimidin-4-ylamino)-1,2-thiazole-4-carboxamide] were, in that order, 5.70 and less than 4.70.
For `CCc1ccccc1NC(=O)c1c(C)nsc1Nc1ncnc2ccccc12` [Example 10, N-(2-Ethylphenyl)-3-methyl-5-(quinazolin-4-ylamino)-1,2-thiazole-4-carboxamide], in that order: 5.19 and less than 4.70.
For `Cc1nsc(Nc2cnc3ccccc3n2)c1C(=O)Nc1ccc(Cl)c(F)c1` [Example 40, N-(4-Chloro-3-fluorophenyl)-3-methyl-5-(quinoxalin-2-ylamino)-1,2-thiazole-4-carboxamide], the pIC50 is 7.35 in test [1] and less than 4.70 in test [2].
The like results for `CCOC(=O)c1cnn2ccc(Nc3snc(C)c3C(=O)Nc3ccc(F)c(F)c3)nc12` [Example 55, Ethyl 5-({4-[(3,4-difluorophenyl)carbamoyl]-3-methyl-1,2-thiazol-5-yl}amino)-pyrazolo[1,5-a]pyrimidine-3-carboxylate] were, in that order, 6.66 and less than 4.70.
The like results for `CCc1ccccc1NC(=O)c1c(C)nsc1Nc1cnccn1` [Example 1, N-(2-Ethylphenyl)-3-methyl-5-(pyrazin-2-ylamino)-1,2-thiazole-4-carboxamide] were, in that order, 5.74 and less than 4.70.
For `Cc1nsc(Nc2cncc(C(=O)N3CCOCC3)n2)c1C(=O)Nc1ccc(F)c(F)c1` [Example 107, N-(3,4-Difluorophenyl)-3-methyl-5-{[6-(morpholin-4-ylcarbonyl)pyrazin-2-yl]amino}-1,2-thiazole-4-carboxamide], in that order: 6.47 and less than 4.70.
Consider `CCc1ccccc1NC(=O)c1c(C)nsc1Nc1ncnc2ccsc12` [Example 13, N-(2-Ethylphenyl)-3-methyl-5-(thieno[3,2-d]pyrimidin-4-ylamino)-1,2-thiazole-4-carboxamide], for which the pIC50 in test [1] is 6.23; in test [2], less than 4.70.
The like results for `COc1ccc(NC(=O)c2c(C)nsc2Nc2ccc(C#N)cn2)cn1` [Example 39, 5-[(5-Cyanopyridin-2-yl)amino]-N-(6-methoxypyridin-3-yl)-3-methyl-1,2-thiazole-4-carboxamide] were, in that order, 5.89 and less than 4.70.
For `Cc1nsc(Nc2cncc(N(C)C)n2)c1C(=O)Nc1ccc(F)c(F)c1` [Example 105, N-(3,4-Difluorophenyl)-5-{[6-(dimethylamino)pyrazin-2-yl]amino}-3-methyl-1,2-thiazole-4-carboxamide], in that order: 5.70 and 4.92.
In the case of `COc1ccc(NC(=O)c2c(C)nsc2Nc2cc(C#N)ccn2)cn1` [Example 25, 5-[(4-Cyanopyridin-2-yl)amino]-N-(6-methoxypyridin-3-yl)-3-methyl-1,2-thiazole-4-carboxamide], the values for the pIC50 in test [1] and in test [2] were 5.66 and less than 4.70, respectively.
The like results for `COc1ccc(NC(=O)c2c(C)nsc2Nc2ncccc2C#N)cn1` [Example 36, 5-[(3-Cyanopyridin-2-yl)amino]-N-(6-methoxypyridin-3-yl)-3-methyl-1,2-thiazole-4-carboxamide] were, in that order, 5.80 and less than 4.70.
The like results for `CCOC(=O)c1cnc(Nc2snc(C)c2C(=O)Nc2ccc(F)c(F)c2)o1` [Example 96, Ethyl 2-({4-[(3,4-difluorophenyl)carbamoyl]-3-methyl-1,2-thiazol-5-yl}amino)-1,3-oxazole-5-carboxylate] were, in that order, 5.92 and less than 4.70.
For `CCc1ccccc1NC(=O)c1c(C)nsc1Nc1cnc2cc(F)ccc2n1` [Example 20, N-(2-Ethylphenyl)-5-[(6-fluoroquinoxalin-2-yl)amino]-3-methyl-1,2-thiazole-4-carboxamide], in that order: 6.47 and less than 4.70.

For the origin of these results see patent publication US9682995B2, “Amino-substituted isothiazoles” (BAYER PHARMA AKTIENGESELLSCHAFT, priority 2013, dated 2017).
